{
  "source": "patent US9957257B2",
  "about": "“Amide compounds as 5-HT4 receptor agonists” (SUVEN LIFE SCIENCES LIMITED, priority 2015, dated 2018)",
  "key": {"acetylcholine [1]": {"tested_on": "acetylcholine", "experiment": "Modulation of acetylcholine from the ventral hippocampus (microdialysis)", "type": "in vivo, male Wistar rats", "details": "1.0 mg/kg, p.o.", "excerpt": "(§1) Male Wistar rats (240-300 grams) were stereotaxically implanted with a microdialysis guide cannula in ventral hippocampus (AP: −5.2 mm, ML: +5.0 mm, DV: −3.8 mm). Co-ordinates were taken according to Paxinos and Watson (2004) with reference points taken from bregma and vertical from the skull. The rats were allowed to recover individually for four to five days in a round bottom Plexiglas bowl with free access to feed and water.\nOne day prior to the microdialysis experiment, rats were connected to a dual quartz lined two-channel liquid swivel (Instech, UK) on a counter balance lever arm, which allowed unrestricted movements of the animal. […]\nA stabilization period of 2 h was maintained and five basal samples were collected at 20 minutes intervals. […] Dialysates were stored below −70° C. until quantitation of acetylcholine.\n(§2) Acetylcholine in dialysate was quantified in the calibration range of 0.103 nmol-103.491 nmol using LC-MS/MS method.\nAll microdialysis data were plotted as percent change from mean dialysate basal concentrations with 100% defined as the average of five pre-dose values. The AUC was calculated by trapezoidal rule using WinNonlin (5.0.1 version, Pharsight Corp. CA). The statistical significance between the mean AUC values of treatment groups with vehicle was calculated using one-way ANOVA followed by Dunnett's test. […]"}, "acetylcholine [2]": {"tested_on": "acetylcholine", "experiment": "Modulation of acetylcholine from the frontal cortex (microdialysis)", "type": "in vivo, male Wistar rats", "details": "p.o.", "excerpt": "as §1, with “frontal cortex” for “ventral hippocampus”, “+3.2” for “−5.2”, “−3.2” for “+5.0”, “−1.5” for “−3.8”\nOne day prior to the microdialysis experiment, rats were connected to a dual quartz lined two-channel liquid swivel (Instech, UK) on a counter balance lever arm, which allowed unrestricted movements of the animal. Sixteen hour before start of study, a pre-equilibrated microdialysis probe (3 mm dialysis membrane) was inserted into the frontal cortex through the guide cannula.\nA stabilization period of 2 hours was maintained and five basal samples were collected at 20 minutes intervals. The test compound, Example 50 or vehicle was administered and dialysate samples were collected at 20 minutes interval for an additional period of 4 hours. Dialysates were stored below −70° C. until quantitation of acetylcholine.\nas §2\nAll microdialysis data were plotted as percent change from mean dialysate basal concentrations with 100% defined as the average of five pre-dose values. The AUC was calculated by trapezoidal rule using WinNonlin (5.0.1 version, Pharsight Corp. CA). The statistical significance between the mean AUC values of treatment groups with vehicle was calculated using one-way ANOVA followed by Dunnett's test. For each treatment group, the percent increase in acetylcholine levels was compared to the vehicle group using two-way analysis of variance (time and treatment), followed by Bonferroni's multiple comparison test. Statistical significance was considered at a p value less than 0.05.\nIn-correct probe placement was considered as criteria to reject the data from animal."}, "[3]": {"experiment": "Object recognition task model", "type": "in vivo, Male Wistar rats", "details": "0.1 mg/kg, p.o.", "method": "The cognition enhancing properties of compounds of this invention were estimated by using this model.\nMale Wistar rats (230-280 grams) were used as experimental animals. Four animals were housed in each cage. Animals were kept on 20% food deprivation before one day and given water ad libitum throughout the experiment and maintained on a 12 hours light/dark cycle. Also the rats were habituated to individual arenas for 1 hour in the absence of any objects.\nOne group of 12 rats received vehicle (1 mL/Kg) orally and another set of animals received compound of the formula (I) either orally or i.p., before one hour of the familiar (T1) and choice trial (T2).\nThe experiment was carried out in a 50×50×50 cm open field made up of acrylic. In the familiarization phase, (T1), the rats were placed individually in the open field for 3 minutes, in which two identical objects (plastic bottles, 12.5 cm height×5.5 cm diameter) covered in yellow masking tape alone (a1 and a2) were positioned in two adjacent corners, 10 cms from the walls. After 24 hours of the (T1) trial for long-term memory test, the same rats were placed in the same arena as they were placed in T1 trial. Choice phase (T2) rats were allowed to explore the open field for 3 minutes in presence of one familiar object (a3) and one novel object (b) (Amber color glass bottle, 12 cm high and 5 cm in diameter). Familiar objects presented similar textures, colors and sizes. During the T1 and T2 trial, explorations of each object (defined as sniffing, licking, chewing or having moving vibrissae whilst directing the nose towards the object at a distance of less than 1 cm) were recorded separately by stopwatch. Sitting on an object was not regarded as exploratory activity, however, it was rarely observed.\nT1 is the total time spent exploring the familiar objects (a1+a2).\nT2 is the total time spent exploring the familiar object and novel object (a3+b).\nThe object recognition test was performed as described by Behaviour Brain Research, 31 (1988), 47-59."}},
  "data": [
    {"smiles": "CC(C)(O)CN1CCC(F)(CNC(=O)c2cc(Cl)c(N)c3ccoc23)CC1", "note": "[Example 50, 4-Amino-5-chloro-N-{[4-fluoro-1-(2-hydroxy-2-methylpropyl)-4-piperidinyl]methyl}benzofuran-7-carboxamide L(+)-tartarate]", "values": [
      {"measurement": "Area under the curve increase, hippocampal acetylcholine", "setting": "acetylcholine [1]", "value": 31, "unit": "%"},
      {"measurement": "increase in acetylcholine levels from ventral hippocampus", "setting": "acetylcholine [1]", "value": 51, "unit": "%"},
      {"measurement": "Acetylcholine levels, frontal cortex, % of pre-dose levels", "setting": "acetylcholine [2]; 10.0 mg/kg", "value": 204, "unit": "%"},
      {"measurement": "Area under the curve (AUC), frontal cortex acetylcholine", "setting": "acetylcholine [2]; 10.0 mg/kg", "value": "significant increase"},
      {"measurement": "acetylcholine levels of frontal cortex", "setting": "acetylcholine [2]; across doses", "value": "dose-dependent increase"},
      {"measurement": "Exploration time mean ± S.E.M, Familiar object", "setting": "[3]", "value": "9.89 ± 1.49", "unit": "s"},
      {"measurement": "Exploration time mean ± S.E.M, Novel object", "setting": "[3]", "value": "18.58 ± 2.44", "unit": "s"},
      {"measurement": "Inference", "setting": "[3]", "value": "Active"}
    ]}
  ]
}
